Columns and labels:
[1] = tested on: Oryza sativa, (L.) Tebonnet; assay: Rice tolerance to post-transplant applications under flooded paddy conditions (Example 187), ORYSAT (Rice, Tebonnet); as to herbicidal effect rating ORYSAT: meaning of each grade not given here
[2] = tested on: Echinochloa oryzoides (Ard.) Fritsch.; assay: Preemergence weed control under flooded paddy conditions, ECHORC (Watergrass (Calif.)); format: in vivo; settings: flooded paddy; as to herbicidal effect rating, ECHORC: meaning of each grade not given here
Sagittaria pygmaea, L. = assay: Preemergence weed control under flooded paddy conditions, SAGPY (Arrowhead (Pygmaea)); format: in vivo; settings: flooded paddy; as to herbicidal effect rating, SAGPY: meaning of each grade not given here
Cyperus iria = assay: Preemergence weed control under flooded paddy conditions, CYPIR (Rice Flatsedge); format: in vivo; settings: flooded paddy; as to herbicidal effect rating, CYPIR: meaning of each grade not given here
[3] = tested on: Monochoria vaginalis, Presl.; assay: Preemergence weed control under flooded paddy conditions, MOOVA (Monochoria); format: in vivo; settings: flooded paddy; as to herbicidal effect rating, MOOVA: meaning of each grade not given here
[4] = tested on: Cyperus serotinus, Rottb.; assay: Preemergence weed control under flooded paddy conditions, CYPSE (Flatsedge); format: in vivo; as to herbicidal effect rating, CYPSE: meaning of each grade not given here
[5] = Rate 0.1250 kg/ha, rated three to four weeks after treatment
[6] = Rate 0.2500 kg/ha, rated three to four weeks after treatment
[7] = Rate 0.0320 kg/ha, preemergence weeds, rated three to four weeks after treatment
[8] = Rate 0.0620 kg/ha, preemergence weeds, rated three to four weeks after treatment
[9] = Rate 0.1250 kg/ha, preemergence weeds, rated three to four weeks after treatment
[10] = Rate 0.2500 kg/ha, preemergence weeds, rated three to four weeks after treatment
[11] = Rate 0.0320 kg/ha, preemergence, rated 3-4 weeks after treatment
[12] = Rate 0.0620 kg/ha, preemergence, rated 3-4 weeks after treatment
[13] = Rate 0.1250 kg/ha, preemergence, rated 3-4 weeks after treatment
[14] = Rate 0.2500 kg/ha, preemergence, rated 3-4 weeks after treatment
[15] = Rate 0.5000 kg/ha, preemergence, rated 3-4 weeks after treatment
[16] = 0.0313 kg/ha, preemergence, rated three to four weeks after treatment
[17] = 0.0625 kg/ha, preemergence, rated three to four weeks after treatment
[18] = 0.1250 kg/ha, preemergence, rated three to four weeks after treatment
[19] = 0.2500 kg/ha, preemergence, rated three to four weeks after treatment
[20] = Rate 0.0313 kg/ha, preemergence, rated three to four weeks after treatment
[21] = Rate 0.0625 kg/ha, preemergence, rated three to four weeks after treatment
[22] = Rate 0.1250 kg/ha, preemergence, rated three to four weeks after treatment
[23] = Rate 0.2500 kg/ha, preemergence, rated three to four weeks after treatment

Cn1c(C(F)(F)F)cc(=O)n(-c2ccc3snc(C(=O)NS(C)(=O)=O)c3c2)c1=O [Example 323, 1,2-Benzisothiazole-3-carboxamide, 5-[3,6-dihydro-3-methyl-2,6-dioxo-4-(trifluoromethyl)-1(2H)-pyrimidinyl]-N-(methylsulfonyl)-]
herbicidal effect rating ORYSAT ([1]; Rate 0.0320 kg/ha, rated three to four weeks after treatment): 3.5
herbicidal effect rating ORYSAT ([1]; Rate 0.0620 kg/ha, rated three to four weeks after treatment): 5.0
herbicidal effect rating ORYSAT [1, 5]: 6.0
herbicidal effect rating ORYSAT [1, 6]: 7.5
herbicidal effect rating, ECHORC [2, 7]: 4.5
herbicidal effect rating, ECHORC [2, 8]: 6.5
herbicidal effect rating, ECHORC [2, 9]: 8.0
herbicidal effect rating, ECHORC [2, 10]: 8.0
herbicidal effect rating, SAGPY (Sagittaria pygmaea, L.; [7]): 0.0
herbicidal effect rating, SAGPY (Sagittaria pygmaea, L.; [8]): 3.5
herbicidal effect rating, SAGPY (Sagittaria pygmaea, L.; [9]): 3.5
herbicidal effect rating, SAGPY (Sagittaria pygmaea, L.; [10]): 9.0
herbicidal effect rating, CYPIR (Cyperus iria; [7]): 3.5
herbicidal effect rating, CYPIR (Cyperus iria; [8]): 4.5
herbicidal effect rating, CYPIR (Cyperus iria; [9]): 8.0
herbicidal effect rating, CYPIR (Cyperus iria; [10]): 8.0
herbicidal effect rating, MOOVA [3, 7]: 8.0
herbicidal effect rating, MOOVA [3, 8]: 9.0
herbicidal effect rating, MOOVA [3, 9]: 9.0
herbicidal effect rating, MOOVA [3, 10]: 9.0
herbicidal effect rating, CYPSE [4, 7]: 5.0
herbicidal effect rating, CYPSE [4, 8]: 6.0
herbicidal effect rating, CYPSE [4, 9]: 6.5
herbicidal effect rating, CYPSE [4, 10]: 7.5

Cn1c(C(F)(F)F)cc(=O)n(-c2ccc3snc(-c4ccccc4OCC(N)=O)c3c2)c1=O [Example 563, Acetamide, 2-{o-{5-[3,6-dihydro-3-methyl-2,6-dioxo-4-(trifluoromethyl)-1(2H)-pyrimidinyl]-1,2-benzisothiazol-3-yl}phenoxy}-]
herbicidal effect rating ORYSAT ([1]; Rate 0.0320 kg/ha, rated 3-4 weeks after treatment): 4.0
herbicidal effect rating ORYSAT ([1]; Rate 0.0620 kg/ha, rated 3-4 weeks after treatment): 7.0
herbicidal effect rating ORYSAT ([1]; Rate 0.1250 kg/ha, rated 3-4 weeks after treatment): 7.0
herbicidal effect rating ORYSAT ([1]; Rate 0.2500 kg/ha, rated 3-4 weeks after treatment): 7.0
herbicidal effect rating ORYSAT ([1]; Rate 0.5000 kg/ha, rated 3-4 weeks after treatment): 4.0
herbicidal effect rating, ECHORC [2, 11]: 3.6
herbicidal effect rating, ECHORC [2, 12]: 5.1
herbicidal effect rating, ECHORC [2, 13]: 5.6
herbicidal effect rating, ECHORC [2, 14]: 9.0
herbicidal effect rating, ECHORC [2, 15]: 9.0
herbicidal effect rating, SAGPY (Sagittaria pygmaea, L.; [11]): 0.0
herbicidal effect rating, SAGPY (Sagittaria pygmaea, L.; [12]): 0.0
herbicidal effect rating, SAGPY (Sagittaria pygmaea, L.; [13]): 0.0
herbicidal effect rating, SAGPY (Sagittaria pygmaea, L.; [14]): 2.0
herbicidal effect rating, SAGPY (Sagittaria pygmaea, L.; [15]): 4.0
herbicidal effect rating, CYPIR (Cyperus iria; [11]): 0.0
herbicidal effect rating, CYPIR (Cyperus iria; [12]): 2.0
herbicidal effect rating, CYPIR (Cyperus iria; [13]): 6.0
herbicidal effect rating, CYPIR (Cyperus iria; [14]): 6.0
herbicidal effect rating, CYPIR (Cyperus iria; [15]): 9.0
herbicidal effect rating, MOOVA [3, 11]: 8.0
herbicidal effect rating, MOOVA [3, 12]: 9.0
herbicidal effect rating, MOOVA [3, 13]: 9.0
herbicidal effect rating, MOOVA [3, 14]: 9.0
herbicidal effect rating, MOOVA [3, 15]: 9.0
herbicidal effect rating, CYPSE [4, 11]: 0.0
herbicidal effect rating, CYPSE [4, 12]: 0.0
herbicidal effect rating, CYPSE [4, 13]: 0.0
herbicidal effect rating, CYPSE [4, 14]: 4.0
herbicidal effect rating, CYPSE [4, 15]: 0.0

COC(=O)C(C)Oc1ccccc1Oc1noc2ccc(-n3c(=O)cc(C(F)(F)F)n(C)c3=O)cc12 (centres unmarked) [Example 47, Methyl 2-{o-{{5-[3,6-dihydro-3-methyl-2,6-dioxo-4-(trifluoromethyl)-1(2H)-pyrimidinyl]-1,2-benzisoxazol-3-yl}oxy}phenoxy}propionate]
herbicidal effect rating, ORYSAT (rice tolerance) ([1]; 0.0313 kg/ha, rated three to four weeks after treatment): 1.5
herbicidal effect rating, ORYSAT (rice tolerance) ([1]; 0.0625 kg/ha, rated three to four weeks after treatment): 2.5
herbicidal effect rating, ORYSAT (rice tolerance) ([1]; 0.1250 kg/ha, rated three to four weeks after treatment): 4.0
herbicidal effect rating, ORYSAT (rice tolerance) ([1]; 0.2500 kg/ha, rated three to four weeks after treatment): 6.0
herbicidal effect rating, ECHORC [2, 16]: 0.0
herbicidal effect rating, ECHORC [2, 17]: 1.5
herbicidal effect rating, ECHORC [2, 18]: 3.5
herbicidal effect rating, ECHORC [2, 19]: 5.0
herbicidal effect rating, SAGPY (Sagittaria pygmaea, L.; [16]): 0.0
herbicidal effect rating, SAGPY (Sagittaria pygmaea, L.; [17]): 0.0
herbicidal effect rating, SAGPY (Sagittaria pygmaea, L.; [18]): 0.0
herbicidal effect rating, SAGPY (Sagittaria pygmaea, L.; [19]): 0.0
herbicidal effect rating, CYPIR (Cyperus iria; [16]): 0.0
herbicidal effect rating, CYPIR (Cyperus iria; [17]): 0.0
herbicidal effect rating, CYPIR (Cyperus iria; [18]): 0.0
herbicidal effect rating, CYPIR (Cyperus iria; [19]): 1.0
herbicidal effect rating, MOOVA [3, 16]: 4.5
herbicidal effect rating, MOOVA [3, 17]: 4.5
herbicidal effect rating, MOOVA [3, 18]: 5.5
herbicidal effect rating, MOOVA [3, 19]: 9.0
herbicidal effect rating, CYPSE [4, 16]: 0.0
herbicidal effect rating, CYPSE [4, 17]: 0.0
herbicidal effect rating, CYPSE [4, 18]: 1.0
herbicidal effect rating, CYPSE [4, 19]: 2.0

CC(C)=CCOCc1nsc2ccc(-n3c(=O)cc(C(F)(F)F)n(C)c3=O)cc12 [Example 210, 1-Methyl-3-{3-[(3-methyl-2-butenyloxy)methyl]-1,2-benzisothiazol-5-yl}-6-(trifluoromethyl)-2,4(1H,3H)-pyrimidinedione]
ORYSAT herbicidal effect rating ([1]; Rate 0.0313 kg/ha, rated three to four weeks after treatment): 3.0
ORYSAT herbicidal effect rating ([1]; Rate 0.0625 kg/ha, rated three to four weeks after treatment): 4.0
ORYSAT herbicidal effect rating [1, 5]: 6.0
ORYSAT herbicidal effect rating [1, 6]: 7.0
ECHORC herbicidal effect rating [2, 20]: 9.0
ECHORC herbicidal effect rating [2, 21]: 9.0
ECHORC herbicidal effect rating [2, 22]: 9.0
ECHORC herbicidal effect rating [2, 23]: 9.0
SAGPY herbicidal effect rating (Sagittaria pygmaea, L.; [20]): 0.0
SAGPY herbicidal effect rating (Sagittaria pygmaea, L.; [21]): 0.0
SAGPY herbicidal effect rating (Sagittaria pygmaea, L.; [22]): 0.0
SAGPY herbicidal effect rating (Sagittaria pygmaea, L.; [23]): 0.0
CYPIR herbicidal effect rating (Cyperus iria; [20]): 2.0
CYPIR herbicidal effect rating (Cyperus iria; [21]): 7.0
CYPIR herbicidal effect rating (Cyperus iria; [23]): 7.0
MOOVA herbicidal effect rating [3, 20]: 9.0
MOOVA herbicidal effect rating [3, 21]: 9.0
MOOVA herbicidal effect rating [3, 22]: 9.0
MOOVA herbicidal effect rating [3, 23]: 9.0
CYPSE herbicidal effect rating [4, 20]: 0.0
CYPSE herbicidal effect rating [4, 21]: 0.0
CYPSE herbicidal effect rating [4, 22]: 0.0
CYPSE herbicidal effect rating [4, 23]: 0.0
